Source: US4221794A, “Method of imparting immunomodulating and antiviral activity” (Newport Pharmaceuticals International, Inc., priority 1979, dated 1980)

What was measured:
[1] = tested on: influenza virus; assay: microbe, parasite or virus in culture; format: cell-based, influenza virus Type A/USSR 90 (HeLa cell cultures)
[2] = tested on: influenza virus; assay: Anti-influenza activity (overall); format: cell-based, several strains of A and B sub-types
[3] = tested on: mouse lymphocytes; assay: Mitogen (Con A) induced mouse lymphocyte (spleen cell) proliferation; format: cell-based; details: plus = immunostimulating, minus = immunoinhibiting, 0 = neither
Source text: The following three assay procedures are used to evaluate the ability of the test substances to modulate the activity of several classes of cells in the immune system. In these systems it is possible to identify both immunopotentiating activity (evidence by an enhancement of the parameter examined) as well as immunosuppressant activity (evidenced by an inhibition of the parameter examined).
1. Mitogen-Induced Mouse Spleen Cell Assay
Mouse spleen cells contain a population of both B and T lymphocytes which can be stimulated by a number of foreign substances (e.g., plant mitogens such as Con A) to proliferate. This enhanced proliferation is an indication of enhanced cell mediated immunity. The method below describes the system used to evaluate test substances as immunopotentiators.
Concanavalin A (Calbiochem, La Jolla, California), Lot #210073, lyophilized in NaCl, was prepared first as a 1% solution and diluted as a 2×concentration for each dilution (0.5, 1.0, 2.5 μg/ml).
Six to eight week old male Balb/c and C3 H inbred mice were obtained from the following sources: Flow Research Animals, Inc., Dublin, Virginia; Charles River Breeding Laboratories, Wilmington, Massachusetts; Laboratory Supply Company, Indianapolis, Indiana; and Lionel Strong Foundation, San Diego, California.
Three to five mice were sacrificed by cervical dislocation and the spleens aseptically removed. Pooled spleens were minced and teased with sterile forceps; then strained through a double layer of nylon mesh. The cell suspension was washed once with 15 ml of RPMI 1640 supplemented with 5% fetal calf serum and antibiotics. Cells were cultured at a concentration of 10^6 cells/0.1 ml/well in micro-plates. Cultures were incubated in the presence or absence of mitogen in a humidified atmosphere containing 5% CO2 for 48 hours. The test compound was added to cultures at various concentrations concommitant with mitogen.
Proliferation was assayed by the degree of incorporation of 1.0 μCi of [^3 H] thymidine over an 18 hour incubation period. Cultures were harvested by a MASH unit (Otto Hiller Co., Madison, Wisconsin) and thymidine incorporation was assayed by liquid scintillation spectrometry. Cultures were performed in triplicate and data are expressed as means plus or minus the standard error of the experimental means. Drug stimulation indices over control values were also calculated and portrayed graphically.
(§1) Table 4 above presents the results of an evaluation of a number of these subject compounds as potentiators of the immune response. Three different test systems were used. The first involves a measure of the ability of the test compound to enhance the ability of mouse lymphocytes to proliferate in response to a plant mitogen (Con A). The second involves measuring the ability of the test compounds to enhance human lymphocyte proliferation in response to a second plant mitogen (PHA). The third system measures the ability of these test substances to enhance macrophage proliferation in response to a natural lymphokine (MMF, Macrophage Mitogenic Factor).

[4] = tested on: human peripheral blood lymphocytes; assay: Mitogen (PHA) induced human lymphocyte proliferation; format: cell-based; details: plus = immunostimulating, minus = immunoinhibiting, 0 = neither
[5] = tested on: guinea pig macrophages; assay: Lymphokine (MMF) induced guinea pig macrophage proliferation; format: cell-based; details: plus = immunostimulating, minus = immunoinhibiting, 0 = neither
Protocol: 3. The macrophage represents a subpopulation of white blood cells which is an important component of the immune system in control of both cellular and humoral immunity. The assay system described below evaluates the substances studied as potentiators of macrophage function.
Phytohemagglutinin (PHA) (HA-17) was purchased from Burroughs Wellcome. A preparation containing Macrophage Mitogen Factor (MMF) and Macrophage Activating Factor (MAF) was prepared from antigen-stimulated immune lymph node lymphocytes (guinea pig) as previously described by Hadden et al, Nature 257, 483-485 (1975). […] The active fraction was employed in both the proliferation and activation assays.
Ficoll-hypaque purified human peripheral blood lymphocytes were prepared and PHA-induced lymphocyte proliferation was assayed by the incorporation of tritiated thymidine as described in Hadden et al., Cell. Immunol. 20, 98-103 (1975). Each compound was analyzed in the presence of suboptimal, optimal and supraoptimal concentrations of PHA (0.001, 0.01, 0.1 units/ml respectively). Paraffin oil-induced guinea pig peritoneal macrophages were prepared and incubated as monolayer culture (>98% pure macrophages). Lymphokine (MMF)-induced proliferation was assayed by the incorporation of tritiated thymidine at 3 and 5 days of culture as described, Hadden et al, Nature 257, 483-485 (1975). Lymphokine (MAF)-induced macrophage activation to kill Listeria monocytogenes following 5 days of culture in the presence or absence of MAF was performed during a 6 hour period as described in Hadden and England, Immunopharmacology, pages 87-100 (Plenum Press, 1977). Phagocytosis was quantitated during a 20-minute exposure to Listeria monocytogenes by counting the number of macrophages containing bacteria and the number of bacteria per phagocytic cell on gram stained monolayers in Labtek chambers. Intracellular killing of bacteria was evaluated by counting the number of cells containing bacteria and the number of bacteria/cell 6 hours after the initial 20 minute exposure. Parallel experiments in which macrophages were lysed and intracellular bacteria were cultured confirm the validity of bacterial activity determined by this manner in this system. The drugs were employed in each of the three systems over serial log concentration range in triplicate in the presence and absence of mitogen or lymphokine. Each type of experiment was performed at least three times. Previous experiments indicate a parallelism of response to pharmacologic modulation in the proliferation and achivation assays.
as §1

Structure (SMILES) | Maximum Percent Change, Mitogen Induced (Con A) Mouse Lymph. Prolif. ([3]; 1.0-10 (unit not given)) | Maximum Percent Change, Mitogen Induced (Con A) Mouse Lymph. Prolif. ([3]; 10-100 (unit not given)) | Maximum Percent Change, Mitogen Induced (Con A) Mouse Lymph. Prolif. ([3]; .01-1.0 (unit not given)) | Maximum Percent Change, Mitogen Induced (PHA) Human Lymph. Prolif. ([4]; 1.0-10 (unit not given)) | Maximum Percent Change, Mitogen Induced (PHA) Human Lymph. Prolif. ([4]; 10-100 (unit not given)) | Maximum Percent Change, Mitogen Induced (PHA) Human Lymph. Prolif. ([4]; .01-1.0 (unit not given)) | further results
CC(O)Cn1cnc2c(=O)[nH]cnc21 (stereo not shown) [NPT 15447] |  |  |  |  |  |  | % Inhibition of Hemadsorption Foci ([1]; Test Compound Conc. <10 μg/ml, listed as 15447): 10%; % Inhibition of Hemadsorption Foci ([1]; Test Compound Conc. >100 μg/ml, listed as 15447): 34%; potentiation of anti-influenza activity by DIP.PAcBA salt [2]: Yes
CC(O)Cn1cnc2c(=O)[nH]cnc21 (stereo not shown) [NPT 15446, 9-(2-HYDROXY-1-PROPYL)HYPOXANTHINE] | 12% | 0% | 6% | 0% | 0% | 0% | % Inhibition of Hemadsorption Foci ([1]; Test Compound Conc. <10 μg/ml, listed as 15446): 2%; % Inhibition of Hemadsorption Foci ([1]; Test Compound Conc. >100 μg/ml, listed as 15446): 0%; Maximum Percent Change, Lymphokine Induced (MMF) Guinea Pig Mac. Prolif. ([5]; 1.0-10 (unit not given)): 0%; Maximum Percent Change, Lymphokine Induced (MMF) Guinea Pig Mac. Prolif. ([5]; 10-100 (unit not given)): 0%; Maximum Percent Change, Lymphokine Induced (MMF) Guinea Pig Mac. Prolif. ([5]; .01-1.0 (unit not given)): 0%
CC(O)Cn1cnc2c(N)ncnc21 (stereo not shown) [NPT 15432] |  |  |  |  |  |  | % Inhibition of Hemadsorption Foci ([1]; Test Compound Conc. >100 μg/ml, listed as 15432): 62%; potentiation of anti-influenza activity by DIP.PAcBA salt [2]: Yes
CC(CO)n1cnc2c(N)ncnc21 (stereo not shown) [NPT 15433, 9-(1-HYDROXY-2-PROPYL)ADENINE] | -23% | -65% | +15% | 0% | -50% | 53% | % Inhibition of Hemadsorption Foci ([1]; Test Compound Conc. >100 μg/ml, listed as 15433): 0%
CC(O)Cn1cnc2c(N)ncnc21 (stereo not shown) [NPT 15431, 9-(2-HYDROXY-1-PROPYL)ADENINE] | -27% | -47% | -15% | 0% | 0% | 0% | % Inhibition of Hemadsorption Foci ([1]; Test Compound Conc. >100 μg/ml, listed as 15431): 0%
CC(CO)n1cnc2c(Cl)ncnc21 (stereo not shown) [NPT 15423, 9-(1-HYDROXY-2-PROPANE)-6-CHLOROPURINE] |  |  |  |  |  |  | inhibition at 10 µg/mL ([1]; unidentified influenza virus, read-out: % Inhibition of Hemadsorption Foci, Test Compound Conc. <10 μg/ml): 2%; inhibition at 100 µg/mL ([1]; unidentified influenza virus, read-out: % Inhibition of Hemadsorption Foci, Test Compound Conc. >100 μg/ml): 6%
O=c1[nH]cnc2c1ncn2CCO [NPT 15425, 9-HYDROXYETHYL HYPOXANTHINE] | 0% |  | 11% | 0% | 0% | 100% | 
